Assay results: patent US20030232986A1, “Inhibitors of caspases” (Vertex Pharmaceuticals Incorporated, priority 1998, published 2003)

How the values were obtained:
Caspase-3 = target: T1, Caspase-3 (Homo sapiens, UniProt P42574); assay: Caspase-3 enzyme inhibition (Ki); format: biochemical; conditions: substrate Ac-DEVD-pNA 60 μM, 8% glycerol in buffer, 37° C.
T1 sequence (P42574 29-175 limits assumed): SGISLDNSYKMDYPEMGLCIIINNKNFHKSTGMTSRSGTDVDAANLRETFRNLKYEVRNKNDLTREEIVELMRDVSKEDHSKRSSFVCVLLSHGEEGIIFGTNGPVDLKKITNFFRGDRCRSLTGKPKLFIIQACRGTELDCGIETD
T1 sequence (P42574 176-277 limits assumed): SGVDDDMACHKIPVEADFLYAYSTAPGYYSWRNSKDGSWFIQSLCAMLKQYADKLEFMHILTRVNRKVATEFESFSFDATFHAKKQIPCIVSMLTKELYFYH
Method: Ki values for test compounds with the various caspases were obtained by the method of Margolin et al. (J. Biol. Chem., 272 pp. 7223-7228 (1997)). Assays were performed in 10 mM Tris (Sigma Corp, St Louis Mo.) pH 7.5, 1 mM Dithiothreitol (DTT, Research Organic INC, Cleveland, Ohio) and 0.1% CHAPS (Pierce, Rockford Ill.) at 37° C. For caspase-3, a solution of 8% glycerol was added to the assay buffer to improve enzyme stability. A 65 μL aliquot of the assay buffer and 5 μL aliquot of the appropriate dilutions of inhibitor in DMSO where pipetted into a 96 well plate, treated with 10 μL of caspase, then diluted in assay buffer (0.5-40 nM active protein by active site titration). A control containing DMSO but no compound was included for each determination. The plates were then incubated for 15 minutes at 37° C., before addition of the appropriate substrate (20 μL, final concentration 1-4×KM, final assay volume 100 μL) to initiate the reaction. Reaction rates were measured at 37° C. either by following the time dependant increase in absorbance at 405 nm (for the pNA substrates) or in fluorescence (Ex 390, Em 460) (for the AMC substrates). The rates obtained were plotted against inhibitor concentration and the data fit to the Morrison tight-binding equation for competitive inhibitors (Morrison, J. F., Biochem. Biophys. Acta, 185 pp. 269-286 (1969)). The substrates used for the individual assays were as follows:
Caspase-3 Ac-DEVD-pNA (Bachem, King of Prussia, Pa.) (final concentration in assay, 60 μM)

Caspase-1 = target: T2, Caspase-1 (Homo sapiens, UniProt P29466); assay: Caspase-1 enzyme inhibition (Ki); format: biochemical; conditions: substrate Suc-YVAD-pNA 80 μM, 37° C., pH 7.5
T2 sequence (P29466 120-297 limits assumed): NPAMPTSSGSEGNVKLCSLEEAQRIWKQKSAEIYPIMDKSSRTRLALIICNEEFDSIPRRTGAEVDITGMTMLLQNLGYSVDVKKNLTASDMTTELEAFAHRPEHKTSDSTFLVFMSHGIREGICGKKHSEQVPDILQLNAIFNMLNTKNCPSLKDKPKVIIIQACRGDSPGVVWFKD
T2 sequence (P29466 317-404 limits assumed): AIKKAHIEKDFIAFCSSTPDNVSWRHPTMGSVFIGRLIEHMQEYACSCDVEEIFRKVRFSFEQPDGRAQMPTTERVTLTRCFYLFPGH
Outline: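 Ki obtained by fitting rate versus inhibitor concentration to the Morrison tight-binding equation for competitive inhibitors, with pNA release read at 405 nm at 37 °C. Substrate Suc-YVAD-pNA (80 μM final) added after 15 min enzyme–inhibitor preincubation in Tris pH 7.5 buffer with DTT and CHAPS.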

[1] = Single pass perfusion in rat: GI wall and liver metabolism, biliary excretion; format: in vitro ADME
Method: Single pass perfusion studies in rat were performed to assess gastrointestinal (GI) wall metabolism (f(g)), liver metabolism (f(h)), and biliary excretion. The method used has been described in Pang, C. S., J. Pharmacol. Exp. Therapeutics, 333, pp. 788-798 (1984).

[2] = system: Human Peripheral Blood Mononuclear Cells (PBMC), mature IL-1β; assay: PBMC cell assay: IL-1β assay with human peripheral blood mononuclear cells; format: cell-based; conditions: LPS-stimulated human PBMC, mature IL-1β in supernatant by ELISA
Outline: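 Donor PBMC (suspension at 6×10^6 cells/ml) or adherent-enriched monocytes were stimulated with 5 ng/ml LPS (final) alongside 5–6 compound dilutions bracketing the ICE Ki, at 0.1% DMSO final, for 16–18 hr at 37° C, 5% CO2. Mature IL-1β in supernatants was measured by ELISA; IC50 was calculated relative to LPS-only controls.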

| Compound | Ki (Caspase-3) | Ki (Caspase-1) | Biliary Excretion [1] | f (g) Xf (h) ([1]; GI wall metabolism f(g) x liver metabolism f(h)) | IC50 [2] |
| --- | --- | --- | --- | --- | --- |
| CC(=O)NC(CC(=O)O)C(=O)NC1CCN(C(CC(C)C)C(=O)NC(C=O)CC(=O)O)C1=O (stereo not shown) [Example 32d] | 0.01 to 1 µM | > 1 µM | – | – | – |
| CC(C)[C@H](NC(=O)c1nccc2ccccc12)C(=O)N[C@@H](C)C(=O)N[C@H](C=O)CC(=O)O [Example 29b] | > 1 µM | < 0.01 µM | B (Category “B” indicates 5-10%) | A (category “A” indicates <0.25) | 1 to 2 µM |
